Results taken from patent US20250129083A1, “IMIDAZOTETRAZINE COMPOUNDS AND TREATMENT OF TMZ-RESISTANT CANCERS” (THE BOARD OF TRUSTEES OF THE UNIVERSITY OF ILLINOIS, priority 2022, published 2025).
Where two headings read alike, the source gives them in different places.

Legend:
[1] = test system: E. coli WP2 uvrA pKM101 strain; assay: Ames test, E. coli WP2 uvrA pKM101; assay type: cell-based; details: 30 μM
Procedure: Next, we measured the mutagenicity of CPZ versus TMZ. TMZ and other DNA methylating chemotherapies are known mutagens, inducing G:C→A:T mutations due to erroneous recognition of O^6-methylguanine. […] CPZ and TMZ (at 30 μM) were also assessed in the E. coli WP2 uvrA pKM101 strain, which is considered one of the more sensitive Ames tester strains available.

[2] = test system: genomic DNA of GL261 cells; assay: Quantitation of O6-guanine DNA adducts in cells, GL261; assay type: cell-based, mouse; details: 100, 300, or 500 μM, 8 hours; LC-MS/MS
Procedure: Importantly, because CPZ was designed to release a different active species than TMZ, the alkylation pattern in a cellular context is likely different. Therefore, to assess if alkylation still occurs with CPZ, a DNA alkylation assay was performed. GL261 cells were treated with 100, 300, or 500 μM TMZ or CPZ for 8 hours after which the cells were harvested and genomic DNA was extracted and subsequently hydrolyzed to constituent deoxyribonucleosides. LC-MS/MS analysis was employed to quantify the amount of O^6-methyl-2′-deoxyguanosine (O^6-Me-dG) or O^6-propargylated-2′-O^6-deoxyguanosine (O^6-Prop-dG) in each sample.
Quantitation of O^6-guanine DNA Adducts in Cells. GL261, A172, or D54 cells were plated at 1×10^6 c/w in a 6-well plate before they were treated with compound at the indicated concentration (1% final concentration DMSO). After incubation for the indicated time, the cells were harvested and pelleted. Genomic DNA was extracted using the DNeasy Blood & Tissue Kit (Qiagen, ID: 69504). DNA was then precipitated using the following procedure: 1/10 v/v […] sodium acetate (pH 5.2) and 2.5× v/v ethanol was added to each sample which was then kept at −80° C. for 1 h. […] Hydrolyzed samples were then submitted for LC-MS/MS quantitation along with a synthetic standard. Samples were analyzed with a 5500 QTRAP LC/MS/MS system (AB Sciex) with a 1200 series HPLC system (Agilent).

T98G cells = assay: Cytotoxicity after pretreatment with MGMT inhibitor O6BG; assay type: cell-based, human; details: T98G pretreated (3 hours) with O6BG vs non-pretreated
Procedure: FIG. 3A-E. Investigation of the mechanism of action and efficacy of CPZ in MGMT+ cell lines. (A) Detection of O^6-methyl-2′-deoxyguanosine or O^6-propargyl-2′-deoxyguanosine in GL261 cells after treatment with TMZ or CPZ, respectively. GL261 cells were treated with the indicated concentration of compound for 8 hours before they were harvested and genomic DNA was extracted. DNA (10 μg) was hydrolyzed and submitted to LC-MS/MS for quantitation. Both O^6-Me-dG and O^6-proparyl-dG were below the limit of detection in the DMSO control. Error is SEM, n≥3. Cytotoxicity of TMZ (B) or CPZ (C) in T98G cells pretreated (3 hours) with MGMT inhibitor O6BG. Error is SEM, n≥3. (D) 7 day dose-response curves of TMZ and CPZ in GL261 cells. Error is SEM, n≥3. (E) 7 day dose-response curves of TMZ and CPZ in GL261 MGMT+ cells. Error is SEM, n≥3.
To further explore the ability of CPZ to evade MGMT-mediated resistance, MGMT-expressing T98G cells were pretreated with MGMT inhibitor O6BG followed by treatment with TMZ or CPZ. […] This cell death potentiation by TMZ upon treatment with an MGMT inhibitor was also observed in MGMT-expressing cell lines U118MG and RKO, whereas the efficacy of CPZ was again unaffected. […]

[3] = test system: RKO colon cancer cell line; assay: Cell viability assay (Alamar Blue, 7 days), RKO; assay type: cell-based; details: 168 h
Procedure: (§1) Cell Culture and Reagents. All cell lines were grown in a 37° C., 5% CO2, humidified environment, in media containing 1% penicillin/streptomycin. Stable cell line generation of GL261 MGMT+ was purchased from Creative Biogene. Cell culture conditions are as follows: cell lines U87, T98G, and RKO were grown in EMEM with 10% FBS. D54, GL261, GL261 MGMT+, and U118MG cell lines were grown in DMEM with 10% FBS. HCT116 cells were grown in RMPI with 10% FBS. D341 Med cells were grown in EMEM with 20% FBS. Temozolomide (TMZ) was purchased from AK Scientific. TMZ analogues were synthesized as described below. Compounds were dissolved in DMSO (1% final concentration, Fisher Chemical) for cell culture studies.
(§2) Cell Viability Assays. Cells were harvested, seeded in a 96-well plate and allowed to adhere. After three hours, compound was added to each well in DMSO (1% final concentration). Cells were incubated for seven days (unless otherwise noted) before viability was assessed by the Alamar Blue assay. Raptinal (20 μM) was used as a dead control.

[4] = Blood-brain barrier permeability; details: mice; 25 mg/kg IV; 15 minutes
Procedure: Biodistribution and Toxicity Studies. […] Brain tissue and blood were collected from each mouse and immediately acidified to prevent prodrug degradation. The concentration of each compound in the serum (FIG. 4A) and brain (FIG. 4B) were quantified by LC-MS/MS.
CD-1 IGS mice were administered compound in 5% DMSO, 10% Tween-20, and 85% SPE-PCD in sterile water (30% w/v) at 25 mg/kg via lateral tail vein injection. Fifteen minutes post injection, mice were sacrificed and blood was collected by lacerating the right auricle with iris scissors. An 18 gauge angiocatheter was inserted through the left ventricle, and all residual circulatory volume was removed by perfusing 0.9% saline solution via an analog peristaltic pump. Blood samples were immediately centrifuged at 13,000 rcf for five minutes and the supernatant collected and acidified with 8.5% aqueous H3PO4. Brains were harvested from the cranial vault, acidified with 0.3% aqueous H3PO4 and flash frozen. Homogenized brain samples were centrifuged twice at 13,000 rcf for ten minutes and supernatant and tissue debris were separated. The resultant supernatant was analyzed, along with plasma, by LC-MS/MS to determine compound concentrations.

GL261 cells = assay: Cell viability assay (Alamar Blue, 7 days), GL261; assay type: cell-based; details: Mus musculus, GL261, 168 h
Procedure: as §1, §2
Plated 1500 c/w for GL261; 600 c/w for U87; 600 c/w for U118MG; 1500 c/w for GL261 MGMT+ Incubated ovn and added 1 μL of compound in DMSO the next day. Incubated over 7 days; added Alamar Blue to assess cell viability and used 10 μM Raptinal as dead control. Error is SEM, n=3.

[5] = Syngeneic subcutaneous model; assay type: in vivo; details: C57BL/6 mice, 1×10^6 cells; 50 mg/kg IV 1×/day over 5 days from day 5
Procedure: FIG. 10A-B. Syngeneic Subcutaneous Model (A, B). TABZ and TMZ in vivo: C57BL/6 mice were inoculated with 1×10^6 cells and treated xl/day over 5 days with either vehicle, TMZ, or TABZ (via IV, 50 mg/kg, starting on day 5).

[6] = Hepatic metabolism: stability in mouse liver microsomes; assay type: in vitro ADME
[7] = 7 days, read-out: Activity, RKO
[8] = MGMT (+)/MMR (−), 7 day, read-out: IC50, RKO
[9] = 7 day dose-response, read-out: IC50, GL261 (parental)
[10] = MGMT (−) MMR (+), 7 days, 1500 c/w, SEM, n=3, read-out: Activity, GL261

Row | Structure (SMILES) | Ames test revertant colonies, E. coli WP2 uvrA pKM101 [1] | Mutagenicity, E. coli WP2 uvrA pKM101 [1] | O6-alkyl-2′-deoxyguanosine adducts (O6-Me-dG for TMZ, O6-Prop-dG for CPZ), GL261 [2] | Potentiation of cell death by O6BG pretreatment (T98G cells) | IC50 [3, 7] [µM] | IC50 [3, 8] [µM] | Increase in brain distribution relative to TMZ [4] [fold] | IC50 (GL261 cells; [9]) [µM] | IC50 (GL261 cells; [10]) [µM] | Tumor growth [5] | Stability (2 h, with MLM) ([6]; percentage remaining relative to t0, mouse liver microsomes, SEM, n ≥ 2) [%] | Stability (2 h, no MLM) ([6]; percentage remaining, microsomes replaced with PBS) [%]
1 | C#CCn1nnc2c(Cl)ncn2c1=O [CPZ, 8-chloro-3-(prop-2-yn-1-yl)imidazo[5,1-d][1,2,3,5]tetrazin-4(3H)-one] | no revertant colonies | non-mutagenic | no detection of O^6-Prop-dG adducts | No such enhancement in activity | 10 ± 1 | 10 | > 10 | 28 | 28 ± 3 |  |  | 
2 | Cn1nnc2c(C(N)=O)ncn2c1=O [TMZ, temozolomide, reference compound] | 95/96 | mutagenic | clear dose-dependent increase | dramatic potentiation of cell death | > 1000 | > 1000 |  | 120 | 120 ± 62 | exacerbation of tumor growth | 95 ± 1 | 92 ± 0.2
